In patent US9272998B1, “Modulation of c-FOS and BDNF protein expression in pentylenetetrazole-kindled mice following the treatment with novel anti-epileptic compound HHL-6” (priority 2015, dated 2016):

How the values were obtained:
[1] = system: scPTZ-induced seizure in mice; test: subcutaneous PTZ-induced seizure test (scPTZ); format: in vivo; conditions: for mortality in scPTZ test: 20 mg/kg of HHL-6 or 7.5 mg/kg of diazepam, PTZ-control 100% mortality; for protection against scPTZ induced mortality / Onset of jerks / Rearing & falling: diazepam 7.5 mg/kg; for protection against scPTZ induced mortality: mortality within 24 hours; for Onset of jerks / Rearing & falling: i.p. 30 min before s.c. PTZ 90 mg/kg, mean of 6 mice; for Onset of jerks: PTZ-control 190; for Rearing & falling: PTZ-control 640
Protocol: (§1) Albino male NMRI mice weighing 20-25 grams were used. The animals were housed under standard laboratory conditions i.e. 12:12 hr light: dark cycle, temperature (21±2° C.) and air humidity controlled environment. Food and water were provided ad libitum. All experiments were carried out in accordance to the International Guidelines for the Use and Care of Laboratory Animals and approved by Scientific Advisory Committee on Animal Care, Use, and Standards of our institute.
The anticonvulsant effect of HHL-6 using scPTZ test was evaluated by administering 20 mg/kg dose to groups of 6 mice at least 30 min before subcutaneous administration of convulsive dose of PTZ (90 mg/kg). After PTZ administration, animals were isolated and observed for an hour for the presence or absence of different types of seizure patterns. Latency to PTZ-induced threshold seizures was also calculated. The latency to threshold seizure is defined as the interval between the time of the PTZ-injection and the occurrence of first episode of threshold seizure. Protection of testing material against PTZ-induced mortality within 24 hours was also evaluated. In all experiments, diazepam (7.5 mg/kg i.p) was used as positive control.
In Table 3, the HHL-6 and diazepam were injected intraperitoneally 30 min before the administration of subcutaneous pentylenetetrazole (90 mg/kg) in their respective groups. Values are presented as mean for the duration of tonic seizure for 6 mice.

[2] = system: scPTZ-induced kindling in mice; test: PTZ-induced kindling test (Racine's scale seizure score); format: in vivo
Protocol: as §1
Sub-convulsive dose (50 mg/kg) of PTZ was given subcutaneously to all groups (n=12/group) except normal control after every 48 hours. In normal control group, instead of PTZ, saline was used. The drug control groups received daily administration of diazepam (7.5 mg/kg). The test group was treated with the HHL-6 (20 mg/kg) once daily. Racine's scale was used to score the seizure activity such as stage 0: no response; stage 1: ear and facial twitching; stage 2: convulsive wave through the body; stage 3: myoclonic jerks, stage 4: clonic-tonic convulsions, turnover into side position; stage 5: generalized clonic-tonic seizures, loss of postural control. Animals showing score 4 or 5 were considered to be fully kindled.

[3] = observed 1-2 hr after treatment
Text: Animals were transferred into individual cages the day before the experiments to allow them to acclimatize to the new environment. […] For behavioral studies, blind-testing was employed i.e., the experimenter conducting this study was blinded to the given treatment.

[4] = HHL-6 20 mg/kg; 30 min and 1 h after injection
Protocol: This was examined by Traction test. The forepaws of a mouse were placed on a small twisted wire rigidly supported above a bench top. Normal mice grasped the wire with forepaws and when allowed to hang free, placed at least one hind foot on the wire within 5 seconds. Inability to put up at least one hind foot constituted failure to the traction. The test was conducted at 30 min and 1 h after the injection of saline, diazepam or HHL-6.

c-Fos protein expression = test: c-Fos immunohistochemistry of brain sections of PTZ-kindled mice (ImageJ densitometry); format: in vivo; conditions: for Fluorescence intensity of c-Fos, Amygdala / Fluorescence intensity of c-Fos, Thalamus / Fluorescence intensity of c-Fos, Hippocampus / Fluorescence intensity of c-Fos, Cortex: PTZ-kindled mice, HHL-6 20 mg/kg, DZP 7.5 mg/kg, mean ± S.E.M.; for Fluorescence intensity of c-Fos, Amygdala: normal control 12.23 ± 2.9, PTZ control 38.17 ± 5.08; for Fluorescence intensity of c-Fos, Thalamus: normal control 12.58 ± 1.79, PTZ control 45.36 ± 3.70; for Fluorescence intensity of c-Fos, Hippocampus: normal control 15.29 ± 2.3, PTZ control 44.27 ± 7.43; for Fluorescence intensity of c-Fos, Cortex: normal control 16.31 ± 1.24, PTZ control 40.69 ± 8.2; for c-Fos staining intensity (FIG. 4B): cortical region, kindled animals, normal control 16.31±1.24, PTZ control 40.69±8.2
Protocol: (§2) Animals were sacrificed 24 hrs after establishment of complete kindling. Cardiac perfusion with chilled PBS buffer (NaCl—8 g, KCl—0.2 g, Na2HPO4×12 H2O—2.85 g, KH2PO4—0.2 g; pH 7.4) containing heparin was performed. Whole brains were removed, post-fixed in ice-cold 2% PFA for 24 hrs at +4° C. and then placed in 30% sucrose until brain samples sank to the bottom of the container. The samples were stored at −80° C. until further processing.
Frozen brain samples were cut into […] thick sections and directly taken on poly L-lysine coated slides and kept at −20° C. overnight. The cryosections were incubated overnight at 4° C. with primary antibody i.e. purified c-Fos (4): sc-52 for c-Fos detection and BDNF (N-20): sc-546 for BDNF detection independently. This was followed by re-incubation with secondary antibody i.e. biotinylated goat anti-mouse IgG (Alexa Flour) for 1 hour at room temperature in dark. The stained sections were observed under fluorescent microscope (Nikon ECLIPSE TE2000-S, Japan). Since the specificity of the primary antibody is very critical therefore, in order to determine specificity, negative controls were also processed by eliminating the step where sections were incubated with their respective primary antibody.
Expression of c-Fos and BDNF protein observed under the fluorescent microscope was analyzed by using software ImageJ (NIH, USA). The image processing program ImageJ helps in multiple imaging system data comparisons taking density (densitometry) in consideration to analyze the images. For each image, background density was determined and subtracted; the remaining particles were considered to represent c-Fos or BDNF expression. Data were obtained from two sections per mouse (n=12 animals per group) and presented as means±S.E.M. cFos and BDNF immunoreactivity in the amygdala, cortex, dorsal hippocampus, and thalamus were centered approximately around 3.6 mm posterior to bregma. Within the hippocampus region, measurements were performed over the layer extending from sub-regions CA1-CA3.
(§3) Data is presented as mean±standard error of the mean (S.E.M.). The seizure activity was analyzed by nonparametric Mann-Whitney U tests. The immunostaining data was analyzed by one-way ANOVA with post hoc Dunnett's multiple comparison tests. Sequential differences among means were calculated at the level of P<0.05 using the SPSS version 10.

BDNF protein expression = test: BDNF immunohistochemistry of brain sections of PTZ-kindled mice (ImageJ densitometry); format: in vivo; conditions: cortical region, kindled animals; normal control 29.53±3.9, PTZ control 57.6±13.6
Protocol: as §2
Frozen brain samples were cut into […] thick sections and directly taken on poly L-lysine coated slides and kept at −20° C. overnight. The cryosections were incubated overnight at 4° C. with primary antibody i.e. purified c-Fos (4): sc-52 for c-Fos detection and BDNF (N-20): sc-546 for BDNF detection independently. […]
Expression of c-Fos and BDNF protein observed under the fluorescent microscope was analyzed by using software ImageJ (NIH, USA). […] For each image, background density was determined and subtracted; the remaining particles were considered to represent c-Fos or BDNF expression. […]
as §3

[5] = HHL-6 20 mg/kg, PTZ 90 mg/kg s.c.
[6] = PTZ 90 mg/kg s.c., HHL-6 20 mg/kg

SMILES	protection from jerks [1, 5]	protection from tonic fore limb and hind limb seizures [1, 5] [%]	mortality in scPTZ test ([1]; PTZ 90 mg/kg s.c.)	protection against scPTZ induced mortality [1, 6] [%]	Onset of jerks ([1]; HHL-6 20 mg/kg) [s]	Rearing & falling ([1]; HHL-6 20 mg/kg) [s]	seizure score (kindling) after treatment day 13 ([2]; HHL-6 20 mg/kg, PTZ 50 mg/kg on alternate days, 18 doses in 36 days)	seizure score (kindling) ([2]; treatment day 9 till 13, HHL-6 20 mg/kg once daily, PTZ 50 mg/kg s.c. every 48 hours, PTZ-kindled control average 4.9)	alteration in normal behavior pattern [3]	hyper-excitability or sedation [3]	muscle relaxant activity (traction test) [4]	Fluorescence intensity of c-Fos, Amygdala (c-Fos protein expression) [arbitrary unit]	Fluorescence intensity of c-Fos, Thalamus (c-Fos protein expression) [arbitrary unit]	Fluorescence intensity of c-Fos, Hippocampus (c-Fos protein expression) [arbitrary unit]	Fluorescence intensity of c-Fos, Cortex (c-Fos protein expression) [arbitrary unit]	c-Fos staining intensity (FIG. 4B) (c-Fos protein expression)	BDNF staining intensity (FIG. 5B) (BDNF protein expression)	seizure pattern till the end of the kindling protocol ([2]; diazepam 7.5 mg/kg daily, PTZ 50 mg/kg s.c. every 48 hours)
CCCCCC(=O)NCCc1c(C(C)=O)[nH]c2c(OC)cccc12 [HHL-6, 2-acetyl-3-(2-hexanoylamidoethyl)-7-methoxyindole]	unable to provide protection from jerks	100	Mortality was not demonstrated	100	460	0	0	0.3	did not show any alteration in their normal behavior pattern	not observed	did not observed muscle relaxant activity	15.21 ± 2.3	15.58 ± 3.74	16.92 ± 2.75	18.24 ± 3.2	18.24±3.2	26.2±5.4	
CN1C(=O)CN=C(c2ccccc2)c2cc(Cl)ccc21 [diazepam, reference compound]			Mortality was not demonstrated	100	0	0						14.94 ± 1.99	18.33 ± 2.19	20.09 ± 3.77	17.28 ± 3.6	17.28±4.6	31.5±7.6	did not exhibit any seizure pattern
